Measured values as given in patent US20090023744A1, “COMBINATION THERAPY FOR DEPRESSION” (The General Hospital Corporation, priority 2007, published 2009).
“Also recorded” adds a separate entry of the source.

Columns and labels:
5-HT2C receptor [1] = biological target: T1, 5-HT2C receptor (Homo sapiens, UniProt P28335); settings: reference [2]; cited from earlier work
T1 sequence (P28335 33-458): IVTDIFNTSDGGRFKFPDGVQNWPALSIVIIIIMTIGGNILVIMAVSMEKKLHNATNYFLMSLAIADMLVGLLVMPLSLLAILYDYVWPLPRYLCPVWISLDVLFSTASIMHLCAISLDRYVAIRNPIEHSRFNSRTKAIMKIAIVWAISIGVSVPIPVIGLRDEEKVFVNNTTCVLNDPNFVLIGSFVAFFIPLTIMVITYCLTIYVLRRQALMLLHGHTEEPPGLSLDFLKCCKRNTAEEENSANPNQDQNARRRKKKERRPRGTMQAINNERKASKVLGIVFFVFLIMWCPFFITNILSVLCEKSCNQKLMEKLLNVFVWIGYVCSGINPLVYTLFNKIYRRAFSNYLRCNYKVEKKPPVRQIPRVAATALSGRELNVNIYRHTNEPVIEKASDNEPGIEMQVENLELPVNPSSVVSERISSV

5-HT2C receptor [2] = biological target: T1, 5-HT2C receptor; settings: reference [2]; cited from earlier work; remark: listed apart in the source
[3] = system: major depressive disorder (MDD); experiment: Clinical case report: treatment of recurrent MDD with buspirone and bupropion; format: in vivo, human; settings: same patient remaining on bupropion 150 SR q.d. alone
From the text: A person with a history of recurrent episodes of MDD presented with a recurrence of their MDD in the context of their having been off antidepressant medications. […] At the time of the initiation of this treatment combination, the patient reported depressed mood, irritability, decreased sleep and appetite, and fatigue, as well as reduced interest.

| insomnia after discontinuation of buspirone [3] | SMILES | 5-HT2C receptor antagonist activity (5-HT2C receptor [1]) | affinity for 5-HT2C receptors (5-HT2C receptor [2]) | depressive symptoms after discontinuation of buspirone [3] |
| --- | --- | --- | --- | --- |
| – | O=C1CC2(CCCC2)CC(=O)N1CCCCN1CCN(c2ncccn2)CC1 [buspirone, 8-[4-[4-(2-pyrimidinyl)-1-piperazinyl)butyl)-8-azaspiro[4,5]decane-7,9-dione] | weak | low affinity | – |
| improvement of their insomnia | CC(NC(C)(C)C)C(=O)c1cccc(Cl)c1 (racemic) [bupropion, (±)-1-(3-chlorophenyl)-2-[(1,1-dimethylethyl)amino]-1-propanone] | – | – | depressive symptoms quickly returned; also recorded: not sufficient to lead to antidepressant response |
